Measurements as given in PubChem BioAssay AID2060509 (Molecular Pharmacology Branch, DTP, NCI, 2025).
pIC50: −log10 of the molar value. Where “and” joins values, the source holds several entries; their conditions need not be identical. Equal values may be shown once.

System: 485176-168-R4-J1-PDC spheroids with HUVEC/MSC, viability
Assay: Anticancer human tumor 485176-168-R4-J1-PDC patient-derived pancreatic adenocarcinoma cell line growth inhibition [GQUAD]
Settings: for viability, T/C: stronger effect = lower value
From the text: DNA G-quadruplex Stabilizer Agents in Combinations in Complex Spheroids
A high-throughput screen of multi-cell type tumor spheroids was designed to identify active combinations of DNA G-quadruplex stabilizer agents and targeted small molecules. Complex spheroids include a stromal component modeled by human endothelial cells (HUVEC) and fibroblasts modeled by human mesenchymal stem cells (MSCs). The concentration ranges selected for each drug and investigational agent were based upon clinically achievable concentrations if the clinical Cmax of the agent was known.
Compounds. The drugs and investigational agents: pidnarulex (CX-5461; NSC782164), APTO-253 (NSC789042), BRACO-19 (NSC847499), peposertib (NSC802822), ceralasertib (NSC780249), elimusertib (NSC800525), camonsertib (NSC841442), AZD-1390 (NSC803789), olaparib (NSC753686), talazoparib (NSC767125), ART-558 (NSC835418), sotorasib (NSC818433), MRTX-1133 (NSC836407), SN-38 (NSC673596), topotecan (NSC609699), etoposide (NSC141540), doxorubicin (NSC123127), gemcitabine (NSC613327), 5-fluorouracil (NSC19893), paclitaxel (NSC125973), vemurafenib (NSC761431), panobinostat (NSC761190), R-306465 (JNJ-16241199; NSC773264), adavosertib (NSC754352), TP-3654 (NSC805149), carboplatin (NSC241240), KSQ-4279 (NSC840948), and staurosporine (NSC755774) were obtained from the National Cancer Institute (NCI) Developmental Therapeutics Program Chemical Repository (34). The FDA-approved anticancer drug set is available from the NCI Developmental Therapeutics Program. […] The stock solutions were prepared in dimethyl sulfoxide (DMSO, Sigma-Aldrich, St. Louis, MO, cat. D2650) at 800-fold the tested concentration and stored at -70 degrees C prior to their use. All drugs and investigational agents were tested over a range starting from a high concentration at or near the clinical Cmax and decreasing in half-log increments. If the clinical Cmax for an agent had not been determined, the highest concentration tested was 10 microM.
2.3 Cell Culture. All cells were maintained in an incubator at 37 degrees C and 5% CO2 with 95% humidity. The PDC lines were cultured according to standard operating procedures established by the NCI PDMR. All PDCs were thawed and cultured in Matrigel-coated flasks prepared with a working solution of 1X Ham's F-12 nutrient mix, without supplementation (Invitrogen, cat. 11765054), 100 U/mL penicillin-streptomycin (Invitrogen, cat. 15140122), and 2.5% Matrigel (Corning Inc., cat. 354248) for the first three passages. The 857933-349-R-J2-PDC line was cultured in 6C/Colon 1B media, which includes advanced DMEM/F-12 (Thermo Fisher Scientific, cat. 12634028), 10 mM HEPES (Thermo Fisher Scientific, cat. 15630080), 1X GlutaMAX supplement (Thermo Fisher Scientific, cat. 35050061), 0.1 mg/mL primocin (InvivoGen, cat. ant-pm-2), 10% defined fetal bovine serum, heat inactivated (HyClone Laboratories Inc., cat. SH30070.03HI), 50% L-WRN conditioned media (ATCC, cat. CRL-3276), 1.25 mM N-Acetyl-L-cysteine (Sigma-Aldrich, cat. A9165), 10 mM nicotinamide (Sigma-Aldrich, cat. N0636), 1X B-27 supplement (Thermo Fisher Scientific, cat. 17504044), 1X N-2 supplement (Thermo Fisher Scientific, cat. 17502048), 10 microM Y-27632 dihydrochloride (Tocris Bioscience, cat. 1254), and 50 ng/mL human EGF recombinant protein (Thermo Fisher Scientific, cat. PHG0311). The 485176-168-R4-J1-PDC line was cultured in Panc media, which includes all 6C/Colon 1B media components plus 100 ng/mL human FGF-10 (Thermo Fisher Scientific, cat. 100-26), 500 nM SB-431542 (Selleckchem, cat. S1067), and gastrin (Tocris, cat. 3006).
[…]

[1] = curve of first compound, second compound 0.0316 µM
[2] = curve of first compound, second compound 0.1 µM
[3] = curve of first compound, second compound 0.316 µM
[4] = curve of first compound, second compound 1 µM
[5] = curve of first compound, second compound 3.16 µM
[6] = curve of first compound, second compound 10 µM
[7] = second compound 0.0316 µM, first compound 0.0316 µM
[8] = second compound 0.0316 µM, first compound 0.1 µM
[9] = second compound 0.0316 µM, first compound 0.316 µM
[10] = second compound 0.0316 µM, first compound 1 µM
[11] = second compound 0.0316 µM, first compound 3.16 µM
[12] = second compound 0.0316 µM, first compound 10 µM
[13] = second compound 0.1 µM, first compound 0.0316 µM
[14] = second compound 0.1 µM, first compound 0.1 µM
[15] = second compound 0.1 µM, first compound 0.316 µM
[16] = second compound 0.1 µM, first compound 1 µM
[17] = second compound 0.1 µM, first compound 3.16 µM
[18] = second compound 0.1 µM, first compound 10 µM
[19] = second compound 0.316 µM, first compound 0.0316 µM
[20] = second compound 0.316 µM, first compound 0.1 µM
[21] = second compound 0.316 µM, first compound 0.316 µM
[22] = second compound 0.316 µM, first compound 1 µM
[23] = second compound 0.316 µM, first compound 3.16 µM
[24] = second compound 0.316 µM, first compound 10 µM
[25] = second compound 1 µM, first compound 0.0316 µM
[26] = second compound 1 µM, first compound 0.1 µM
[27] = second compound 1 µM, first compound 0.316 µM
[28] = second compound 1 µM, first compound 1 µM
[29] = second compound 1 µM, first compound 3.16 µM
[30] = second compound 1 µM, first compound 10 µM
[31] = second compound 3.16 µM, first compound 0.0316 µM
[32] = second compound 3.16 µM, first compound 0.1 µM
[33] = second compound 3.16 µM, first compound 0.316 µM
[34] = second compound 3.16 µM, first compound 1 µM
[35] = second compound 3.16 µM, first compound 3.16 µM
[36] = second compound 3.16 µM, first compound 10 µM
[37] = second compound 10 µM, first compound 0.0316 µM
[38] = second compound 10 µM, first compound 0.1 µM
[39] = second compound 10 µM, first compound 0.316 µM
[40] = second compound 10 µM, first compound 1 µM
[41] = second compound 10 µM, first compound 3.16 µM
[42] = second compound 10 µM, first compound 10 µM
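Note: spheroids exposed to compounds for seven days before readout.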
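Throughout, for viability, T/C: percent viability relative to DMSO vehicle control wells as 100%.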

## CC(=O)O[C@H]1C(=O)[C@@]2(C)[C@H]([C@H](OC(=O)c3ccccc3)[C@]3(O)C[C@H](OC(=O)[C@H](O)[C@@H](NC(=O)c4ccccc4)c4ccccc4)C(C)=C1C3(C)C)[C@]1(OC(C)=O)CO[C@@H]1C[C@@H]2O
Compound 0.0316 µM
  viability, T/C: 33.5% and 33.7% and 29.3%
Compound 0.1 µM
  viability, T/C: 10.2% and 14.9% and 9.73%
Compound 0.316 µM
  viability, T/C: 12.3% and 11.3% and 10.6%
Compound 1 µM
  viability, T/C: 10.9% and 13.4% and 9.36%
Compound 3.16 µM
  viability, T/C: 11% and 13.5% and 10.1%
Compound 10 µM
  viability, T/C: 13.7% and 11.4% and 9.37%
Curve of compound
  pIC50: > 7.50

## CC(=O)O[C@H]1C(=O)[C@@]2(C)[C@H]([C@H](OC(=O)c3ccccc3)[C@]3(O)C[C@H](OC(=O)[C@H](O)[C@@H](NC(=O)c4ccccc4)c4ccccc4)C(C)=C1C3(C)C)[C@]1(OC(C)=O)CO[C@@H]1C[C@@H]2O + Cc1[nH]c2ccc(F)cc2c1-c1nc2c3cccnc3c3ncccc3c2[nH]1
[1]
  pIC50: > 7.50
[2]
  pIC50: > 7.50
[3]
  pIC50: > 7.50
[4]
  pIC50: > 7.50
[5]
  pIC50: > 7.50
[6]
  pIC50: > 7.50
[7]
  viability, T/C: 29.9%
[8]
  viability, T/C: 10.3%
[9]
  viability, T/C: 10.7%
[10]
  viability, T/C: 10.7%
[11]
  viability, T/C: 10.6%
[12]
  viability, T/C: 11.5%
[13]
  viability, T/C: 29.6%
[14]
  viability, T/C: 13.1%
[15]
  viability, T/C: 16%
[16]
  viability, T/C: 12.4%
[17]
  viability, T/C: 12.3%
[18]
  viability, T/C: 10%
[19]
  viability, T/C: 24.9%
[20]
  viability, T/C: 14.4%
[21]
  viability, T/C: 14.9%
[22]
  viability, T/C: 9.44%
[23]
  viability, T/C: 12.5%
[24]
  viability, T/C: 11.7%
[25]
  viability, T/C: 28.6%
[26]
  viability, T/C: 13.2%
[27]
  viability, T/C: 12%
[28]
  viability, T/C: 13.2%
[29]
  viability, T/C: 9.22%
[30]
  viability, T/C: 10.8%
[31]
  viability, T/C: 24.5%
[32]
  viability, T/C: 12.1%
[33]
  viability, T/C: 13.4%
[34]
  viability, T/C: 12.2%
[35]
  viability, T/C: 11.3%
[36]
  viability, T/C: 11.8%
[37]
  viability, T/C: 28%
[38]
  viability, T/C: 9.49%
[39]
  viability, T/C: 14.4%
[40]
  viability, T/C: 14.4%
[41]
  viability, T/C: 11.1%
[42]
  viability, T/C: 12.1%

## CC(C)n1c(=O)n(C)c2cnc3cc(F)c(-c4ccc(OCCCN5CCCCC5)nc4)cc3c21
Compound 0.0316 µM
  viability, T/C: 91.6% and 91.4% and 87.6%
Compound 0.1 µM
  viability, T/C: 84.9% and 80% and 85%
Compound 0.316 µM
  viability, T/C: 92.1% and 95.7% and 88.2%
Compound 1 µM
  viability, T/C: 91.2% and 77.1% and 86.4%
Compound 3.16 µM
  viability, T/C: 82.5% and 93.8% and 83.5%
Compound 10 µM
  viability, T/C: 78.8% and 75.8% and 72.5%
Curve of compound
  pIC50: < 5.00

## Cc1cccc(N(C)C(=O)C2C(O)CCN2c2nc(C)cc(C(F)(F)F)c2C#N)c1 (configuration not stated)
Compound 0.0316 µM
  viability, T/C: 103% and 99% and 105%
Compound 0.1 µM
  viability, T/C: 85.8% and 79.2% and 87.1%
Compound 0.316 µM
  viability, T/C: 84.3% and 101% and 97.6%
Compound 1 µM
  viability, T/C: 85.8% and 105% and 76.4%
Compound 3.16 µM
  viability, T/C: 97.7% and 103% and 97.5%
Compound 10 µM
  viability, T/C: 95.4% and 91.5% and 89.9%
Curve of compound
  pIC50: < 5.00

## CC[C@@]1(O)C(=O)OCc2c1cc1n(c2=O)Cc2cc3c(CN(C)C)c(O)ccc3nc2-1
Compound 0.000999 µM
  viability, T/C: 103% and 99% and 108%
Compound 0.00316 µM
  viability, T/C: 99.1% and 96.4% and 81%
Compound 0.00999 µM
  viability, T/C: 89.2% and 94.7% and 93%
Compound 0.0316 µM
  viability, T/C: 64.6% and 100% and 90.4%
Compound 0.0999 µM
  viability, T/C: 54.2% and 66.9% and 58.7%
Compound 0.316 µM
  viability, T/C: 31.3% and 35.5% (2×)
Curve of compound
  pIC50: 6.99 and 6.73 and 6.81

## CC1COCCN1c1cc(-c2ccnn2C)c2ccnc(-c3ccn[nH]3)c2n1 (configuration not stated) + Cc1[nH]c2ccc(F)cc2c1-c1nc2c3cccnc3c3ncccc3c2[nH]1
[1]
  pIC50: 7.21
[2]
  pIC50: 7.07
[3]
  pIC50: 7.11
[4]
  pIC50: 7.24
[5]
  pIC50: 7.19
[6]
  pIC50: 7.16
[7]
  viability, T/C: 71.8%
[8]
  viability, T/C: 34.2%
[9]
  viability, T/C: 19.2%
[10]
  viability, T/C: 10.6%
[11]
  viability, T/C: 10.7%
[12]
  viability, T/C: 11.7%
[13]
  viability, T/C: 60.5%
[14]
  viability, T/C: 48.3%
[15]
  viability, T/C: 16.8%
[16]
  viability, T/C: 10.9%
[17]
  viability, T/C: 11.1%
[18]
  viability, T/C: 13.2%
[19]
  viability, T/C: 67%
[20]
  viability, T/C: 45%
[21]
  viability, T/C: 18.7%
[22]
  viability, T/C: 10.4%
[23]
  viability, T/C: 12.3%
[24]
  viability, T/C: 11.3%
[25]
  viability, T/C: 61.1%
[26]
  viability, T/C: 39.5%
[27]
  viability, T/C: 19.1%
[28]
  viability, T/C: 10.3%
[29]
  viability, T/C: 10.6%
[30]
  viability, T/C: 9.82%
[31]
  viability, T/C: 64.9%
[32]
  viability, T/C: 40.6%
[33]
  viability, T/C: 15.8%
[34]
  viability, T/C: 9.36%
[35]
  viability, T/C: 11.8%
[36]
  viability, T/C: 12%
[37]
  viability, T/C: 70.3%
[38]
  viability, T/C: 40.7%
[39]
  viability, T/C: 18.2%
[40]
  viability, T/C: 10.9%
[41]
  viability, T/C: 11.2%
[42]
  viability, T/C: 11.4%
